Molecular target: T1, rpHMGR (Ruegeria pomeroyi, UniProt Q5LL64, D154K)
T1 construct: gene mvaA; N-terminal 6xHis-tag (pET28a-rpHMGR(N)), codon-optimised synthetic gene, E. coli BL21(DE3), Ni-NTA purified; homodimer only by model
Assay: NADPH consumption followed at […] nm (reductive deacylation of HMG-CoA)
Assay type: biochemical
Conditions: 0.5 mM NADPH, 0.5 mM (R,S)-HMG-CoA, 50 mM Tris-HCl, 50 mM NaCl, 5 mM DTT, pH 7.5, 30 °C

T1 sequence (Q5LL64 entry or part of it D154K): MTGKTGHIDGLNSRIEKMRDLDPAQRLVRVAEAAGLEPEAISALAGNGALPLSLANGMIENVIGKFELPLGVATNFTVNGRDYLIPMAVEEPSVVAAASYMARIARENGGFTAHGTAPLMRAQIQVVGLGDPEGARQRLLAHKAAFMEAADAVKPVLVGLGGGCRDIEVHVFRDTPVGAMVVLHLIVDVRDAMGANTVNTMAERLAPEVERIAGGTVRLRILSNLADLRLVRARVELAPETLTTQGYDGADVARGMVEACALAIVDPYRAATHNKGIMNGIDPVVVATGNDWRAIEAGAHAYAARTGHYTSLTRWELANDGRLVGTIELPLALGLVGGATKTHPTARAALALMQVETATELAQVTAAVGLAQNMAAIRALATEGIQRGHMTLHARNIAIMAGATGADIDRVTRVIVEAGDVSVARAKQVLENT

NC(=O)C1=CN([C@@H]2O[C@H](COP(=O)(O)OP(=O)(O)OC[C@H]3O[C@@H](n4cnc5c(N)ncnc54)[C@H](OP(=O)(O)O)[C@@H]3O)[C@@H](O)[C@H]2O)C=CC1 [NADPH]
specific activity: D154K mutant exhibited a significantly improved ability to utilize NADPH

From publication PMC12292504, “Improving Cofactor Promiscuity of HMG-CoA Reductase from Ruegeria pomeroyi Through Rational Design” (Biomolecules, 2025)
